Assay results: the NIST ThermoML archive (doi:10.1021/je049685z)

Test: xn = mol fraction of the nth substance listed
Conditions: Liquid

Cc1ccccc1 [toluene] + CCCO
mass density [kg/m3]
Conditions | 100 kPa | 5000 kPa | 10000 kPa | 15000 kPa | 20000 kPa | 25000 kPa | 30000 kPa
303.15 K, x2 = 0 | 857.4 | 861.3 | 865.1 | 868.7 | 872.3 | 875.6 | 878.9
303.15 K, x2 = 0.2 | 847.5 | 851.5 | 855.3 | 859 | 862.5 | 865.9 | 869.2
303.15 K, x2 = 0.4 | 837.2 | 841.2 | 845 | 848.7 | 852.2 | 855.7 | 858.9
303.15 K, x2 = 0.6 | 825.9 | 829.9 | 833.7 | 837.4 | 840.9 | 844.3 | 847.5
303.15 K, x2 = 0.8 | 812.4 | 816.4 | 820.2 | 823.8 | 827.3 | 830.7 | 834
313.15 K, x2 = 0 | 848.1 | 852.1 | 856.2 | 860 | 863.7 | 867.2 | 870.7
313.15 K, x2 = 0.2 | 838.1 | 842.2 | 846.3 | 850.2 | 853.9 | 857.5 | 860.9
313.15 K, x2 = 0.4 | 828 | 832 | 836.1 | 840 | 843.7 | 847.3 | 850.7
313.15 K, x2 = 0.6 | 816.9 | 821 | 825 | 828.9 | 832.6 | 836.1 | 839.5
313.15 K, x2 = 0.8 | 803.8 | 807.8 | 811.9 | 815.8 | 819.4 | 823 | 826.3
323.15 K, x2 = 0 | 838.6 | 842.9 | 847.2 | 851.2 | 855.1 | 858.9 | 862.5
323.15 K, x2 = 0.2 | 828.5 | 832.9 | 837.2 | 841.3 | 845.2 | 849 | 852.6
323.15 K, x2 = 0.4 | 818.3 | 822.7 | 827 | 831.1 | 835 | 838.8 | 842.4
323.15 K, x2 = 0.6 | 807.4 | 811.8 | 816.1 | 820.2 | 824.1 | 827.9 | 831.5
323.15 K, x2 = 0.8 | 794.7 | 799.1 | 803.4 | 807.4 | 811.3 | 815 | 818.6
333.15 K, x2 = 0 | 829.2 | 833.7 | 838.2 | 842.5 | 846.6 | 850.5 | 854.3
333.15 K, x2 = 0.2 | 818.7 | 823.3 | 827.9 | 832.3 | 836.4 | 840.4 | 844.2
333.15 K, x2 = 0.4 | 808.5 | 813.1 | 817.8 | 822.1 | 826.3 | 830.3 | 834.1
333.15 K, x2 = 0.6 | 797.9 | 802.5 | 807.1 | 811.4 | 815.6 | 819.5 | 823.3
333.15 K, x2 = 0.8 | 785.6 | 790.2 | 794.7 | 799 | 803.1 | 807 | 810.8
